Test results taken from patent US20050240041A1, “Palm-based hydroxy fatty acid” (priority 2004, published 2005).
“Also recorded” adds a separate entry of the source.

Experiments:
[1] = cited from earlier work
[2] = in-vitro dermal (skin) irritection test
Experimental: (§1) The purified palm DHSA obtained in the laboratory was subjected to in-vitro and in-vivo dermal irritection test which confirmed that the compound is non irritant, and thus suitable as one of the ingredients used in cosmetic products. The details of the current invention is described below.
In the recrystallization technique, the crude DHSA is dissolved in the solvent with a slight heating of the mixture (about 50° C. to 60° C.). The solution is left to cool down gradually to ambient temperature and further cooled at about 10° C. to 15° C. to ensure maximum yield. The precipitate obtained is filtered and dried. The product referred to, as purified palm DHSA is a white powdery solid with waxy sensation. The non-irritancy properly was conducted through in vitro derived skin irritection study.

[3] = in-vivo dermal irritection test
From the text: as §1

CCCCCCCCC(O)C(O)CCCCCCCC(=O)O (stereo not drawn) [9,10-dihydroxystearic acid]
solubility in ether ([1]; ether): slightly soluble | solubility in hot alcohol or acetone ([1]; hot alcohol or acetone): soluble | solubility in water ([1]; water): insoluble

CCCCCCCCC(O)C(O)CCCCCCCC(=O)O (stereo not drawn) [purified DHSA, 9,10-dihydroxystearic acid]
irritancy ([2]; test not named at this place): non-irritant

CCCCCCCCC(O)C(O)CCCCCCCC(=O)O (stereo not drawn) [purified palm DHSA, 9,10-dihydroxystearic acid]
dermal irritancy ([2]; in vitro dermal/skin irritection study): non irritant; also recorded: non-irritant | dermal irritancy [3]: non irritant
